Structures can show the parent of a compound that is named as a salt.
Assay: physchem

Row | Structure (SMILES) | log p (pH 2.7) | further results
1 | Cc1csc(C(=O)C=CN(C)C)c1 [3-(Dimethylamino)-1-(4-methyl-2-thienyl)prop-2-en-1-one] | 1.65 | –
2 | CC(C)Nc1nccc(C(=CN(C)C)C(=O)c2ccc(Cl)s2)n1 [3-(Dimethylamino)-1-(5-chloro-2-thienyl)-2-[2-(isopropylamino)pyrimidin-4-yl]prop-2-en-1-one] | 1.67 | –
3 | CSc1nccc(C(=CN(C)C)C(=O)c2ccc(Cl)s2)n1 [3-(Dimethylamino)-1-(5-chloro-2-thienyl)-2-[2-(methylsulfanyl)pyrimidin-4-yl]prop-2-en-1-one] | 2.27 | –
4 | Cc1c(Br)c(-c2ccc(Cl)s2)nn1C [4-Bromo-3-(5-chloro-2-thienyl)-1,5-dimethyl-1H-pyrazole] | 3.92 | –
5 | CCn1nc(-c2ccc(Cl)s2)c(Br)c1C [4-Bromo-3-(5-chloro-2-thienyl)-1-ethyl-5-methyl-1H-pyrazole] | 4.54 | –
6 | Cc1c(Br)c(-c2ccc(Cl)s2)nn1C(C)C [4-Bromo-3-(5-chloro-2-thienyl)-1-isopropyl-5-methyl-1H-pyrazole] | 5.35 | –
7 | CC(C)n1cc(I)c(-c2cccs2)n1 [4-Iodo-1-isopropyl-3-(2-thienyl)-1H-pyrazole] | 3.71 | –
8 | Cc1csc(-c2nn(C(C)C)cc2I)c1 [4-Iodo-1-isopropyl-3-(4-methyl-2-thienyl)-1H-pyrazole] | 4.26 | –
9 | CC(C)n1ncc(I)c1-c1cccs1 [4-Iodo-1-isopropyl-5-(2-thienyl)-1H-pyrazole] | 3.66 | –
10 | CCCc1c(I)c(-c2sccc2C)nn1C [4-Iodo-1-methyl-3-(3-methyl-2-thienyl)-5-propyl-1H-pyrazole] | 4.03 | –
11 | Cc1csc(-c2nn(C)cc2I)c1 [4-Iodo-1-methyl-3-(4-methyl-2-thienyl)-1H-pyrazole] | 3.18 | –
12 | CCCc1nn(C)c(-c2sccc2C)c1I [4-Iodo-1-methyl-5-(3-methyl-2-thienyl)-3-propyl-1H-pyrazole] | 4.27 | –
13 | CCCc1c(I)c(-c2cccs2)nn1C [4-Iodo-1-methyl-5-propyl-3-(2-thienyl)-1H-pyrazole] | 3.92 | –
14 | CCCn1cc(I)c(-c2cccs2)n1 [4-Iodo-1-propyl-3-(2-thienyl)-1H-pyrazole] | 3.65 | –
15 | Ic1c[nH]nc1-c1cccs1 [4-Iodo-3-(2-thienyl)-1H-pyrazole] | 2.1 | –
16 | CCCn1cc(I)c(-c2cc(C)cs2)n1 [4-Iodo-3-(4-methyl-2-thienyl)-1-propyl-1H-pyrazole] | 4.2 | –
17 | CCC[CH2][Sn]([CH2]CCC)([CH2]CCC)[c]1c(-c2ccncc2)cnn1C1CCCCO1 (stereo not drawn) [4-[1-(tetrahydro-2H-pyran-2-yl)-5-(tributylstannyl)-1H-pyrazol-4-yl]pyridine] | 4.89 | –
18 | Clc1ccc(-c2nn(C3CC3)cc2-c2ccncc2)s1 [4-[1-Cyclopropyl-3-(5-chloro-2-thienyl)-1H-pyrazol-4-yl]pyridine] | 1.62 | –
19 | CCn1cc(-c2ccncc2)c(-c2cccs2)n1 [4-[1-Ethyl-3-(2-thienyl)-1H-pyrazol-4-yl]pyridine] | 0.75 | –
20 | CC(C)Cn1cc(-c2ccncc2)c(-c2ccc(C#N)s2)n1 [4-[1-Isobutyl-3-(5-cyano-2-thienyl)-1H-pyrazol-4-yl]pyridine] | 1.74 | –

Row | Structure (SMILES) | log p (pH 2.7) | further results
21 | CC(C)n1cc(-c2ccncc2)c(-c2ccc(Cl)s2)n1 [4-[1-Isopropyl-3-(5-chloro-2-thienyl)-1H-pyrazol-4-yl]pyridine] | 1.82 | –
22 | CC(C)n1cc(-c2ccncc2)c(-c2ccc(F)s2)n1 [4-[1-Isopropyl-3-(5-fluoro-2-thienyl)-1H-pyrazol-4-yl]pyridine] | 1.53 | –
23 | CSc1ccc(-c2nn(C(C)C)cc2-c2ccncc2)s1 [4-[1-Isopropyl-3-(5-methylsulfanyl-2-thienyl)-1H-pyrazol-4-yl]pyridine] | 1.79 | –
24 | CC(C)n1ncc(-c2ccncc2)c1-c1ccc(Cl)s1 [4-[1-Isopropyl-5-(5-chloro-2-thienyl)-1H-pyrazol-4-yl]pyridine] | 1.7 | –
25 | CC(C)n1ncc(-c2ccncc2)c1-c1ccc(F)s1 [4-[1-Isopropyl-5-(5-fluoro-2-thienyl)-1H-pyrazol-4-yl]pyridine] | 1.51 | –
26 | CSc1ccc(-c2c(-c3ccncc3)cnn2C(C)C)s1 [4-[1-Isopropyl-5-(5-methylsulfanyl-2-thienyl)-1H-pyrazol-4-yl]pyridine] | 1.78 | –
27 | CC(C)Cn1cc(-c2ccncc2)c(-c2ccc(Br)s2)n1 [4-[1-isobutyl-3-(5-bromo-2-thienyl)-1H-pyrazol-4-yl]pyridine] | 2.04 | –
28 | CCC(C)n1cc(-c2ccncc2)c(-c2cc(Cl)cs2)n1 (stereo not drawn) [4-[1-sec-Butyl-3-(4-chloro-2-thienyl)-1H-pyrazol-4-yl]pyridine] | 1.83 | –
29 | CCC(C)n1cc(-c2ccnc(C#CC3CC3)c2)c(-c2ccc(Cl)s2)n1 (stereo not drawn) [4-[1-sec-Butyl-3-(5-chloro-2-thienyl)-1H-pyrazol-4-yl]-2-(cyclopropylethynyl)pyridine] | 4.56 | –
30 | CCC(C)n1cc(-c2ccnc(C(=O)NC(C)C)c2)c(-c2ccc(Cl)s2)n1 (stereo not drawn) [4-[1-sec-Butyl-3-(5-chloro-2-thienyl)-1H-pyrazol-4-yl]-N-isopropylpyridine-2-carboxamide] | 4.82 | –
31 | CCC(C)n1cc(-c2ccncc2)c(-c2ccc(Cl)s2)n1 (stereo not drawn) [4-[1-sec-Butyl-3-(5-chloro-2-thienyl)-1H-pyrazol-4-yl]pyridine] | 2.1 | –
32 | CCC(C)n1ncc(-c2ccncc2)c1-c1ccc(Cl)s1 (stereo not drawn) [4-[1-sec-Butyl-5-(5-chloro-2-thienyl)-1H-pyrazol-4-yl]pyridine] | 1.94 | –
33 | CCC(C)n1cc(-c2ccncc2)c(-c2ccc(F)s2)n1 (stereo not drawn) [4-[1-sec-butyl-3-(5-fluoro-2-thienyl)-1H-pyrazol-4-yl]pyridine] | 1.78 | –
34 | CCC(C)n1ncc(-c2ccncc2)c1-c1ccc(F)s1 (stereo not drawn) [4-[1-sec-butyl-5-(5-fluoro-2-thienyl)-1H-pyrazol-4-yl]pyridine] | 1.84 | –
35 | Brc1ccc(-c2n[nH]cc2-c2ccncc2)s1 [4-[3-(5-Bromo-2-thienyl)-1H-pyrazol-4-yl]pyridine] | 0.94 | –
36 | CSc1nccc(-c2cn(C(C)C)nc2-c2ccc(Cl)s2)n1 [4-[3-(5-Chloro-2-thienyl)-1-isopropyl-1H-pyrazol-4-yl]-2-(methylsulfanyl)pyrimidine] | 4.44 | –
37 | CC(C)n1cc(-c2ccnc(S(C)(=O)=O)n2)c(-c2ccc(Cl)s2)n1 [4-[3-(5-Chloro-2-thienyl)-1-isopropyl-1H-pyrazol-4-yl]-2-(methylsulfonyl)pyrimidine] | 3.15 | –
38 | CC(C)Nc1nccc(-c2c[nH]nc2-c2ccc(Cl)s2)n1 [4-[3-(5-Chloro-2-thienyl)-1H-pyrazol-4-yl]-2-(isopropylamino)pyrimidine] | 1.79 | –
39 | CSc1nccc(-c2c[nH]nc2-c2ccc(Cl)s2)n1 [4-[3-(5-Chloro-2-thienyl)-1H-pyrazol-4-yl]-2-(methylsulfanyl)pyrimidine] | 2.78 | –
40 | CC#Cc1[nH]nc(-c2ccc(Cl)s2)c1-c1ccncc1 [4-[3-(5-Chloro-2-thienyl)-5-(prop-1-yn-1-yl)-1H-pyrazol-4-yl]pyridine] | 1.44 | –

Row | Structure (SMILES) | log p (pH 2.7) | further results
41 | Clc1ccc(-c2n[nH]c(C3CC3)c2-c2ccncc2)s1 [4-[3-(5-Chloro-2-thienyl)-5-cyclopropyl-1H-pyrazol-4-yl]pyridine] | 1.29 | –
42 | CCC(C)n1nc(-c2ccc(Cl)s2)c(-c2ccncc2)c1F (stereo not drawn) [4-[3-(5-Chloro-2-thienyl)-5-fluoro-1-secbutyl-1H-pyrazol-4-yl]pyridine] | 2.61 | –
43 | CCC(C)n1nc(-c2ccc(Cl)s2)c(-c2ccncc2)c1SC (stereo not drawn) [4-[3-(5-Chloro-2-thienyl)-5-methylsulfanyl-1-secbutyl-1H-pyrazol-4-yl]pyridine] | 3.35 | –
44 | Fc1ccc(-c2n[nH]cc2-c2ccncc2)s1 [4-[3-(5-Fluoro-2-thienyl)-1H-pyrazol-4-yl]pyridine] | 0.57 | –
45 | CC(C)Cn1cc(-c2ccnc3ccccc23)c(-c2ccc(Cl)s2)n1 [4-[3-(5-chloro-2-thienyl)-1-isobutyl-1H-pyrazol-4-yl]quinoline] | 3.69 | –
46 | Clc1ccc(-c2n[nH]cc2-c2ccncc2)s1 [4-[3-(5-chloro-2-thienyl)-1H-pyrazol-4-yl]pyridine] | 0.9 | –
47 | FC(F)(F)c1ccc(-c2n[nH]cc2-c2ccncc2)s1 [4-[3-(5-trifluoromethyl-2-thienyl)-1H-pyrazol-4-yl]pyridine hydrochloride] | 1.34 | –
48 | CC(C)n1nc(C2CC2)c(-c2ccncc2)c1-c1ccc(Cl)s1 [4-[3-Cyclopropyl-1-isopropyl-5-(5-chloro-2-thienyl)-1H-pyrazol-4-yl]pyridine] | 2.44 | –
49 | Cc1n[nH]c(-c2ccc(Cl)s2)c1-c1ccncc1 [4-[5-(5-Chloro-2-thienyl)-3-methyl-1H-pyrazol-4-yl]pyridine] | 1.07 | –
50 | Clc1ccc(-c2n[nH]c(Br)c2-c2ccncc2)s1 [4-[5-Bromo-3-(5-chloro-2-thienyl)-1H-pyrazol-4-yl]pyridine] | 1.4 | –
51 | CCC(C)n1nc(-c2ccc(Cl)s2)c(-c2ccncc2)c1Cl (stereo not drawn) [4-[5-Chloro-1-secbutyl-3-(5-chloro-2-thienyl)-1H-pyrazol-4-yl]pyridine] | 3.44 | –
52 | CC(C)n1nc(-c2ccc(Cl)s2)c(-c2ccncc2)c1C1CC1 [4-[5-Cyclopropyl-1-isopropyl-3-(5-chloro-2-thienyl)-1H-pyrazol-4-yl]pyridine] | 2.44 | –
53 | CC(C)n1nccc1-c1cc(Br)c(Br)s1 [5-(4,5-Dibromo-2-thienyl)-1-isopropyl-1H-pyrazole] | 4.44 | –
54 | CCn1nccc1-c1cc(Br)cs1 [5-(4-Bromo-2-thienyl)-1-ethyl-1H-pyrazole] | 2.92 | –
55 | CC(C)n1nccc1-c1cc(Br)cs1 [5-(4-Bromo-2-thienyl)-1-isopropyl-1H-pyrazole] | 3.44 | –
56 | CCn1ncc(I)c1-c1cc(Cl)cs1 [5-(4-Chloro-2-thienyl)-1-ethyl-4-iodo-1H-pyrazole] | 3.76 | –
57 | CCCn1nccc1-c1cc(C)cs1 [5-(4-Methyl-2-thienyl)-1-propyl-1H-pyrazole] | 3.1 | –
58 | CC(C)Cn1cc(-c2cc(N)ncn2)c(-c2ccc(Cl)s2)n1 [6-[3-(5-chloro-2-thienyl)-1-isobutyl-1H-pyrazol-4-yl]pyrimidin-4-amine] | 1.97 | –
59 | CCn1cc(-c2ccncc2)c(-c2cccs2)n1 [Example 148, 4-[1-Ethyl-3-(2-thienyl)-1H-pyrazol-4-yl]pyridine] | – | chromatographic logP (pH 2.7): 0.75; chromatographic logP (pH 7.8): 2.06

Reference: patent US8685974B2 (Bayer CropScience AG, priority 2009, dated 2014)
